Experimental data published in PMC7155171, “Probing the Open Global Health Chemical Diversity Library for Multistage-Active Starting Points for Next-Generation Antimalarials” (ACS Infectious Diseases, 2020).
Like-named read-outs stand apart in the source and are kept apart here.

Legend:
[1] = tested on: HepG2-A16-CD81 hepatocytes; experiment: cells; parameters: Uninfected hepatocyte viability, CellTiter-Glo luminescence; conditions: sheet CDD Export 1;, cytotoxicity primary screen, read-out: Table S5. Liver stage reconfirmation data / HepG2 Cytotoxicity primary screen (2uM): % Inhibition
Protocol: For the screen, 5 μL of HepG2-A16-CD81 hepatocytes containing 3 × 10^3 cells was seeded into 1536-well plates, which had been prespotted with 10 nL of library compound (2 μM final assay concentration (Figure 1)) and incubated overnight. For PbLuc infected plates, approximately 750 purified sporozoites in 5 μL of screening media were added to each well and incubated for 48 h before measuring luciferase activity. Compounds were tested for toxicity in parallel (see Methods) by measuring uninfected hepatocyte viability using CellTiter-Glo. […] This hit rate was slightly lower than expected for an agnostic library, which prompted us to rescreen the entire library at 10 μM. The PbLuc and cytotoxicity assay plates for this second replicate would be stamped in-house with 50 nL of library compound per well, using the same compound plates as the sexual stage screen described below. All the assay parameters were kept similar, except the change in concentration and shortening the time the compounds spent in each well prior to infection. […] All potential false positive effectors from the CellTiter-Glo assay were filtered from subsequent studies (Table S1). Naturally, there were more primary hits from the 10 μM than the 2 μM screen due to the higher testing concentration. For reconfirmation, we sourced all the hits that inhibited PbLuc at >70% and mean HepG2 at <50% in the 2 μM screen or PbLuc at >60% in both 2 and 10 μM screens and mean HepG2 at <50%. The resulting compounds were acquired as DMSO stocks and retested in the dose response (50–2.82 × 10^–4 μM or 25–141.13 × 10^–6 μM) against PbLuc and uninfected hepatocytes (Table S5). […] The majority of these compounds were weak inhibitors, although 18 submicromolar hits were found (Table S5).

[2] = tested on: P. falciparum Dd2 (PfLuc) line expressing firefly luciferase, asexual blood stage; experiment: microbe, parasite or virus in culture; assay type: cell-based, Plasmodium falciparum; conditions: Plasmodium falciparum
P. falciparum Dd2 = experiment: SYBR green I asexual blood stage proliferation assay (96 h); assay type: cell-based, Plasmodium falciparum; conditions: Plasmodium falciparum, DD2, 11-pt dose response, 96hr
[3] = tested on: P. falciparum (NF54) stage V gametocytes; experiment: Stage V gametocyte viability assay (MitoTracker Red CMXRos high content imaging); assay type: cell-based, Plasmodium falciparum; conditions: Plasmodium falciparum, NF54, 72 h; for inhibition at 2 µM: read-out: Stg V Gam primary screen: Inhibition % (2uM) (n=2)
[4] = DD2, read-out: CDD P. falciparum Luciferase ABS 11-pt Reconfirmation Dose Response (48hr): IC50 (μM), 11-pt dose response, 48hr
[5] = DD2, 8-pt dose response, 96hr, read-out: CDD P. falciparum Luciferase ABS 8-pt Reconfirmation Dose Response (96hr): IC50
[6] = DD2, 8-pt dose response, 96hr, read-out: CDD P. falciparum Luciferase ABS 8-pt Reconfirmation Dose Response (96hr): Maximum inhibition (%)
[7] = DD2, 11-pt dose response, 48hr, read-out: CDD P. falciparum Luciferase ABS 11-pt Reconfirmation Dose Response (48hr): Maximum inhibition (%)
[8] = DD2, 11-pt dose response, 96hr, read-out: CDD P. falciparum Luciferase ABS 11-pt Reconfirmation Dose Response (96hr): IC50
[9] = DD2, 11-pt dose response, 96hr, read-out: CDD P. falciparum Luciferase ABS 11-pt Reconfirmation Dose Response (96hr): Maximum inhibition (%)
[10] = Sybr Green I, read-out: CDD P. falciparum Sybr Green I ABS 11-pt Reconfirmation Dose Response (96hr): IC50
[11] = Sybr Green I, read-out: CDD P. falciparum Sybr Green I ABS 11-pt Reconfirmation Dose Response (96hr): Maximum inhibition (%)
[12] = read-out: Stg V Gam dose response IC50 (µM) (n=3), 10-point dose response, n=3, 72 h
[13] = DD2, 8-pt dose response, 96hr, read-out: P. falciparum Luciferase ABS 8-pt Reconfirmation Dose Response (96hr): IC50
[14] = DD2, 8-pt dose response, 96hr, read-out: P. falciparum Luciferase ABS 8-pt Reconfirmation Dose Response (96hr): Maximum inhibition (%)
[15] = DD2, read-out: P. falciparum Luciferase ABS 11-pt Reconfirmation Dose Response (48hr): IC50, 11-pt dose response, 48hr
[16] = DD2, 11-pt dose response, 96hr, read-out: P. falciparum Luciferase ABS 11-pt Reconfirmation Dose Response (96hr): IC50
[17] = DD2, 11-pt dose response, 96hr, read-out: P. falciparum Luciferase ABS 11-pt Reconfirmation Dose Response (96hr): Maximum inhibition (%)
[18] = read-out: P. falciparum Sybr Green I ABS 11-pt Reconfirmation Dose Response (96hr): IC50
[19] = read-out: P. falciparum Sybr Green I ABS 11-pt Reconfirmation Dose Response (96hr): Maximum inhibition (%)
[20] = read-out: GAM V IC50, stage V gametocytes, 72 h

With `Cc1ccc(Sc2ccc(CN3CCC4(CCCNC4=O)C3)o2)cc1` (centres unmarked) [DDD01244322] the inhibition at 2 µM [1] was -4.2%.
With `N#Cc1c(Cl)nsc1NCC1(c2ccccc2)CCC1` [DDD01079347] the inhibition at 2 µM [1] was 12%.
`Cc1csc2ncnc(N3CCC(Cn4cc(C(C)(C)N)nn4)CC3)c12` [DDD01257281] gave an inhibition at 2 µM [1] of 4.6%.
`COc1ccc(-c2c(C)nn3c(=N)c(C#N)n[nH]c23)cc1OC` [DDD01035187, COC1=CC=C(C=C1OC)C1=C2N=NC(C#N)=C(N)N2N=C1C] showed an IC50 [2, 4] of 1.18 µM, an IC50 [2, 5] of 0.57 µM and an Emax [2, 6] of 93%. The Emax [2, 7] was 95.8%, the IC50 [2, 8] was 0.841 µM and the Emax [2, 9] was 98.5%. It also gave an IC50 (P. falciparum Dd2; [10]) of 5.98 µM, an Emax (P. falciparum Dd2; [11]) of 90.8% and an IC50 [3, 12] of 8.2 µM. For the same molecule, the inhibition at 2 µM [3] was 61.6%.
Molecule `COc1c(C)cnc(CN2CCC(N(C)C(C)C(N)=O)CC2)c1C` (centres unmarked) [DDD01301801] has an IC50 [2, 13] of 1.63 µM, an Emax [2, 14] of 76.5% and an inhibition at 2 µM [1] of 1.63%.
`CC(C)(C)c1cn2c(n1)C(CNCc1ccccn1)CCC2` (centres unmarked) [DDD01062588, CC(C)(C)C1=CN2CCCC(CNCC3=CC=CC=N3)C2=N1] showed an IC50 [2, 15] of 2.9 µM, an IC50 [2, 13] of 1.44 µM and an Emax [2, 14] of 91.5%. For the same molecule, the Emax ([2]; DD2, 11-pt dose response, 48hr, read-out: P. falciparum Luciferase ABS 11-pt Reconfirmation Dose Response (48hr): Maximum inhibition (%)) was 90.4%, the IC50 [2, 16] was 1.41 µM and the Emax [2, 17] was 98.6%. It also gave an IC50 (P. falciparum Dd2; [18]) of 1.72 µM, an Emax (P. falciparum Dd2; [19]) of 87.3% and an IC50 [3, 20] of 0.07 µM. For the same molecule, the IC50 [3, 12] was 0.069 µM and the inhibition at 2 µM [3] was 86.8%.
`CN(CCO)Cc1cc(Cl)ccc1OCC(O)CN1CCCCCC1` (centres unmarked) [DDD01243745, CN(CCO)CC1=CC(Cl)=CC=C1OCC(O)CN1CCCCCC1] gave an IC50 [2, 4] of 2.92 µM, an IC50 [2, 5] of 0.95 µM and an Emax [2, 6] of 93.5%. For the same molecule, the Emax [2, 7] was 97%, the IC50 [2, 8] was 1.45 µM and the Emax [2, 9] was 98.8%. The IC50 (P. falciparum Dd2; [10]) was 1.09 µM, the Emax (P. falciparum Dd2; [11]) was 99.1% and the IC50 [3, 12] was 5.69 µM. For the same molecule, the inhibition at 2 µM [3] was 54.7%.
`COC1CCN(c2ccc(NC(=O)C3CC3)cc2C(F)(F)F)CC1` [DDD01061774] showed an inhibition at 2 µM [1] of 12.4%.
With `COc1cc(CNCc2ccnc(N3CCCCC3)c2)cc(OC)c1` [DDD01297270] the inhibition at 2 µM [1] was -2.79%.
With `CN(Cc1nccs1)c1nc(-c2ccccn2)nc2c1CCNCC2` [DDD01258014, CN(CC1=NC=CS1)C1=NC(=NC2=C1CCNCC2)C1=CC=CC=N1] the IC50 [2, 4] was 2.11 µM, the IC50 [2, 5] was 1.09 µM and the Emax [2, 6] was 89.8%. It also gave an Emax [2, 7] of 76.9%, an IC50 [2, 8] of 0.455 µM and an Emax [2, 9] of 98%. The IC50 ([2]; 96 h incubation, Dd2 luciferase, read-out: 96 hour Pfluc IC50) was 0.46 µM, the IC50 (P. falciparum Dd2; [10]) was 8.5 µM and the Emax (P. falciparum Dd2; [11]) was 68.8%. For the same molecule, the IC50 [3, 20] was 1.18 µM, the IC50 [3, 12] was 1.18 µM and the inhibition at 2 µM [3] was 75.5%.
`Clc1cccc(C(NCc2ncc[nH]2)c2ccccn2)c1` (centres unmarked) [DDD01064155, ClC1=CC=CC(=C1)C(NCC1=NC=CN1)C1=CC=CC=N1] gave an IC50 [2, 4] of 1.99 µM, an IC50 [2, 5] of 0.27 µM and an Emax [2, 6] of 94.2%. For the same molecule, the Emax [2, 7] was 94.1%, the IC50 [2, 8] was 0.408 µM and the Emax [2, 9] was 98.7%. The IC50 (P. falciparum Dd2; [10]) was 3.75 µM, the Emax (P. falciparum Dd2; [11]) was 88.1% and the IC50 [3, 20] was 2.06 µM. It also gave an IC50 [3, 12] of 2.06 µM and an inhibition at 2 µM [3] of 59.1%.
With `Cc1noc(NC(=O)c2ccc(Br)s2)n1` [DDD01302055] the inhibition at 2 µM [1] was 5.11%.
`CCc1ccc(C2c3nc[nH]c3CCN2Cc2nccn2CC)nc1` (centres unmarked) [DDD01254473, CCN1C=CN=C1CN1CCC2=C(NC=N2)C1C1=CC=C(CC)C=N1] was tested, and the IC50 [2, 15] was 1.54 µM, the IC50 [2, 13] was 1.2 µM and the Emax [2, 14] was 91.2%. The IC50 [2, 16] was 0.448 µM, the Emax [2, 17] was 98.8% and the IC50 (P. falciparum Dd2; [18]) was 2.64 µM. The Emax (P. falciparum Dd2; [19]) was 78.6%, the IC50 [3, 12] was 0.056 µM and the inhibition at 2 µM [3] was 80.6%.
For `COc1ccc(NC(=O)Cn2nc(C)c(C(C)=O)c2C)cc1` [DDD01027600, COC1=CC=C(NC(=O)CN2N=C(C)C(C(C)=O)=C2C)C=C1], the IC50 [2, 4] was 1.9 µM, the IC50 [2, 5] was 0.49 µM and the Emax [2, 6] was 92.8%. For the same molecule, the Emax [2, 7] was 87%, the IC50 [2, 8] was 1.45 µM and the Emax [2, 9] was 92.8%. For the same molecule, the IC50 (P. falciparum Dd2; [10]) was 4.58 µM, the IC50 [3, 12] was 3.74 µM and the inhibition at 2 µM [3] was 53.5%.
Molecule `COc1ccc(-c2cc(CNc3ncnc4c3CCNCC4)no2)cc1` [DDD01252258] has an inhibition at 2 µM [1] of 4.02%.
`Cc1cc(-c2cnc(NCc3cccnc3)nc2C(C)(C)C)on1` [DDD01061148] showed an inhibition at 2 µM [1] of -8.43%.
`Clc1ccccc1-c1cc(CNc2ncnc3c2CCNCC3)no1` [DDD01247009] showed an inhibition at 2 µM [1] of -1.07%.
`Cc1nc(C(=O)NC2CCN(CCOc3ccc(Br)cc3)CC2)cs1` [DDD01079205] gave an inhibition at 2 µM [1] of 17.6%.
For `Cn1cncc1CN1CCCC1c1cncc(Oc2ccc(Cl)cc2)n1` (centres unmarked) [DDD01059295], the inhibition at 2 µM [1] was 0.825%.
